Results from patent US20110059154A1, “CCR5 ANTAGONISTS AS PROPHYLACTICS FOR PREVENTING HIV INFECTION AND METHODS OF INHIBITING TRANSMISSION OF SAME” (priority 2008, published 2011).
Where a name gives a salt, the structure may show the parent alone.

Tests used:
[1] = Thermogravimetric analysis (TGA), thermal stability; assay type: physicochemical
Protocol: Thermogravimetric analysis (TGA) was conducted with a TGA Q500 from TA instruments. A typical experiment involved heating the material in a platinum pan under a nitrogen purge from 25° C. to 350° C. at 10° C. per minute. Data was analyzed using the Universal using the Universal Analysis software program from TA Instruments.
Thermogravimetric analysis (TGA) was performed on each form to evaluate the thermal stability and presence of any volatiles in the sample (FIG. 3). The onset of thermal degradation is estimated using the derivative of weigh loss curve and was measured as 276° C. and 270° C. for forms 1 and 2 respectively.

[2] = Competition slurry experiment, relative thermodynamic stability of forms 1 and 2; assay type: physicochemical; details: slurry in 2-propanol and in MTBE, seeded with both forms, 1 week; PXRD and DSC
Protocol: To assess the relative thermodynamic stability of forms 1 and 2, a competition slurry experiment was performed. In this experiment, the as received amorphous material was slurried in one vial containing 2-propanol and another containing MTBE. Seeds of both form 1 and form 2 were added to both vials and stirring continued for 1 week. The solid material was filtered from each vial and analyzed with PXRD and DSC.

HIV-1BaL = assay: microbe, parasite or virus in culture; assay type: cell-based; details: Human immunodeficiency virus 1, TZM-bl, read-out: Inhibition of HIV Infection (TZM-bL cells using luciferase reporter) IC50-RS
[3] = Compound toxicity, MTT dye reduction; assay type: cell-based; details: human, TZM-bL cells, mean ± D (n independent experiments), read-out: Cytotoxicity CC50 (TZM-bL)
Protocol: Determination of compound toxicity. The viability of cells (TZM-bI) and following treatment with the compound was determined by the principle of MTT dye reduction (see references cited in Fletcher et. al.). All data are expressed as the percentage of viability for compound-treated wells compared to untreated cell control wells, and the 50% cytotoxic concentration (CC50) is defined as the concentration of the drug at which the cell/tissue viability was reduced to 50% of the drug-free control value.

[4] = Initial solubility assessment in solvents useful in making vaginal devices; assay type: physicochemical
Description: Initial solubility assessments were made of Compounds 28A, 23 and 5L to evaluate compatibility in various solvents useful in making vaginal devices.

CO/N=C(\c1ccc(Br)cc1)C1CCN(C2(C)CCN(C(=O)c3c(C)ncnc3C)CC2)CC1 [form 1]
onset of thermal degradation [1]: 276 °C | relative thermodynamic stability of forms 1 and 2 [2]: more thermodynamically stable form

CO/N=C(\c1ccc(Br)cc1)C1CCN(C2(C)CCN(C(=O)c3c(C)ncnc3C)CC2)CC1 [Compound 5L Tartrate]
IC50 (HIV-1BaL): 0.119 ± 0.0924 µM | CC50 [3]: 476 ± 117 µM

CCC[C@@H](c1ccc(C(F)(F)F)cc1)N1CCN(C2(C)CCN(C(=O)c3c(C)ncnc3C)CC2)C[C@@H]1C [Compound 28A]
Solubility (percent in parentheses) ([4]; PEG 400, 1.12 g/cm^3): ≥ 3.4% | Solubility (percent in parentheses) ([4]; PG (propyleneglycol), 1.038 g/cm^3): ≥ 3.6% | solubility ([4]; organic solvent or mixture, PEG 400): ≥ 39 mg/mL | solubility ([4]; organic solvent or mixture, PG (propyleneglycol)): ≥ 38.4 mg/mL | solubility ([4]; pH 4.4, aqueous buffer, pH 4.4 citrate buffer): ≥ 11.4 mg/mL | solubility ([4]; pH 7.5, aqueous buffer, pH 7.5 phosphate buffer): < 0.33 mg/mL | solubility ([4]; water, DI H20): ≥ 3.85 mg/mL
